In PMC9855333, “1-(Arylsulfonyl-isoindol-2-yl)piperazines as 5-HT6R Antagonists: Mechanochemical Synthesis, In Vitro Pharmacological Properties and Glioprotective Activity” (Biomolecules, 2022):
“And” between values parts separate entries of the source, which are not always exact repeats. Equal entries are not always repeated.

Tests used:
5-HT6R [1] = target: T1, 5-HT6R (Homo sapiens, UniProt P50406); experiment: Radioligand binding, [3H]-LSD displacement, HEK-293 cells; design: expressed in transfected cells; conditions: Table 1; HEK293 cells; three independent binding experiments; read-out: Ki [nM] ± SEM at the 5-HT6R
T1 sequence (P50406 whole entry): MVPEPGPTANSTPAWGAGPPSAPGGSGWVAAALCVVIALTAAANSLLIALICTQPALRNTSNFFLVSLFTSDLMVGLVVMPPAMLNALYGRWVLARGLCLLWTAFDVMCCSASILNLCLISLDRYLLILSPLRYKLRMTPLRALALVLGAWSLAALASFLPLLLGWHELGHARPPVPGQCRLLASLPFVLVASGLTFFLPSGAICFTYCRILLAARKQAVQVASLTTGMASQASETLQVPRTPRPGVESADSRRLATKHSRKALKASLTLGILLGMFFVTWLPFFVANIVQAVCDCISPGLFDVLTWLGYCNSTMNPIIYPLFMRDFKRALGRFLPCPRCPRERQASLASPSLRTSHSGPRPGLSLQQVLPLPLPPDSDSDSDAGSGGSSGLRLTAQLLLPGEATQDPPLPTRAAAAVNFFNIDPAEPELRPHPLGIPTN
Method: All experiments were performed in HEK-293 cells, which stably express the human 5-HT1A, 5-HT6, 5-HT7b, and D2L receptors, or using CHO-K1 cells expressing human serotonin 5-HT2A receptor, following the previously reported procedures. For displacement studies, the following radioligands (PerkinElmer, USA) at given concentrations were used at: 2.5 nM [^3H]-8-OH-DPAT (135.2 Ci/ mmol); 1 nM [^3H]-ketanserin (53.4 Ci/mmol); 2 nM [^3H]-LSD (83.6 Ci/mmol); 0.8 nM [^3H]-5-CT (39.2 Ci/mmol) or 2.5 nM [^3H]-raclopride (76.0 Ci/mmol) for 5-HT1A, 5-HT2A, 5-HT6, 5-HT7b and D2L receptors, respectively. All tested compounds were evaluated in triplicate at 7 concentrations (10^−10–10^−4 M). The inhibition constants (Ki) were calculated from the Cheng–Prusoff equation [25]. A detailed description is reported in the Supporting Information.
All synthesized compounds were evaluated in ^3[H]-LSD competition binding experiments for their affinity for 5-HT6R expressed in HEK-293 cells (Table 1). Embedding the sulfonamide moiety into an unsubstituted isoindoline scaffold was sufficient to provide potent compounds 3a and 3e. […] This effect might result from the favorable localization of the bromine atom at the isoindoline fragment, which enabled compound 3k to adopt an optimal position in the receptor binding pocket via the formation of hydrophobic/steric interactions.
1. Procedure for radioligand binding assay
All experiments were carried out according to the previously published procedures. HEK293 cells stably expressing human 5-HT1A, 5-HT6, 5-HT7b and D2L receptors (prepared with the use of Lipofectamine 2000) or CHO-K1 cells with plasmid containing the sequence coding for the human serotonin 5-HT2A receptor (Perkin Elmer) were maintained at 37 °C in a humidified atmosphere containing 5% CO2 and grown in Dulbecco’s Modified Eagle’s Medium containing 10% dialyzed fetal bovine serum and 500 μg/ml G418 sulfate. For membrane preparation, cells were cultured in 150 cm2 flasks, grown to 90% confluence, washed twice with pre-warmed to 37 °C phosphate buffered saline (PBS) and centrifuged (200 × g) in PBS containing 0.1 mM EDTA and 1 mM dithiothreitol. Prior to membrane preparation, pellets were stored at –80 °C. Cell pellets were thawed and homogenized in 10 volumes of assay buffer using an Ultra Turrax tissue homogenizer and centrifuged twice at 35,000 × g for 15 min at 4 °C, with incubation for 15 min at 37 °C between the centrifugations. The composition of the assay buffers was experimentally selected to achieve the […]
5-HT1AR: 50 mM Tris HCl, 0.1 mM EDTA, 4 mM MgCl2, 10 μM pargyline and 0.1% ascorbate; 5-HT2AR: 50 mM Tris HCl, 0.1 mM EDTA, 4 mM MgCl2 and 0.1% ascorbate;
5-HT6R: 50 mM Tris HCl, 0.5 mM EDTA and 4 mM MgCl2; 5-HT7bR: 50 mM Tris HCl, 4 mM MgCl2, 10 μM pargyline and 0.1% ascorbate; D2LR: 50 mM Tris HCl, 1 mM EDTA, 4 mM MgCl2, 120 mM NaCl, 5 mM KCl, 1.5 mM CaCl2 and 0.1% ascorbate).
All assays were carried out in a total volume of 200 μL in 96-well plates for 1 h at 37 °C, except 5-HT1AR and 5-HT2AR which were incubated at room temperature and 27 °C, respectively.
The process of equilibration was terminated by rapid filtration through Unifilter plates with a 96-well cell harvester and radioactivity retained on the filters was quantified on a Microbeta plate reader (PerkinElmer, USA). For displacement studies the assay samples contained as radioligands (PerkinElmer, USA): 2.5 nM [3H]-8-OH-DPAT (135.2 Ci/ mmol) for 5-HT1AR; 1 nM [3H]-ketanserin (53.4 Ci/mmol) for 5-HT2AR; 2 nM [3H]-LSD (83.6 Ci/mmol) for 5-HT6R; 0.8 nM [3H]-5-CT (39.2 Ci/mmol) for 5-HT7R or 2.5 nM [3H]-raclopride (76.0 Ci/mmol) for D2LR. Non-specific binding was defined in the presence of 10 μM of 5-HT in 5-HT1AR and 5-HT7R binding experiments, 20 μM of mianserin for 5-HT2AR, 10 μM of methiothepine for 5-HT6R or 10 μM of haloperidol for D2LR bidning assays. Each compound was tested in triplicate at 7 concentrations (10-10–10-4 M). The inhibition constants (Ki) were calculated […]

C8-D1A astrocytes [2] = experiment: Glioprotection against rotenone-induced cytotoxicity, MTT; assay type: cell-based, mouse; conditions: compound 0.25 µM, rotenone 0.5 µM, 24 h
Method: (§1) Mouse astrocytes (C8-D1A cell line, ATCC) were cultured in DMEM (Dulbecco’s Modified Eagle’s Medium) supplemented with 10% FBS (FBS; Gibco, Life Technologies, Carlsbad, CA, USA) and 1% antibiotic mixture (Gibco, Life Technologies, Carlsbad, CA, USA) at standard condition until the cells reached 80–90% confluence. Cells were harvested and seeded in 96-well plates at a density of 5000 cells/well. All experiments were conducted with a reduced amount of serum equal to 2.5%. The optimal amount of serum was determined experimentally on the basis of preliminary studies. […] Then 6-OHDA (20 µM) or rotenone (0.5 µM) were added and co-incubated for the next 24 h. The ability of tested compounds to prevent 6-OHDA-induced or rotenone-induced cytotoxicity was assessed by MTT assay following the protocol described above. The experiments were run three times in triplicates.
(§2) Considering the pivotal physiological role of astrocytes in contrasting oxidative stress and promoting tissue repair, supporting their neuroprotective function might be regarded as a tangible strategy to improve the current therapeutic needs in the treatment of neurodegenerative disorders. […] For this purpose, cells were co-incubated with the evaluated compounds (at the non-toxic concentration of 0.25 µM) and 6-OHDA or ROT (20 and 0.5 µM, respectively). After 24 h of incubation, the viability of astrocytes was determined using the MTT assay.

C8-D1A astrocytes [3] = experiment: Glioprotection against 6-OHDA-induced cytotoxicity, MTT; assay type: cell-based, mouse; conditions: compound 0.25 µM, 6-OHDA 20 µM, 24 h
Method: as §1, §2

[4] = Cytotoxicity, MTT test, C8-D1A; assay type: cell-based; conditions: mouse, C8-D1A cells (mouse astrocytes)
Method: (§3) Hepatotoxicity, neurotoxicity, and glial cytotoxicity were investigated using the following cellular models: human hepatocellular carcinoma (HepG2), human neuroblastoma (SHSY-5Y), and mouse astrocytes (C8-D1A), all from ATCC (American Type Culture Collection, Manassas, VA, USA). Cells were cultured in appropriate culture media recommended by ATCC supplemented with 10% fetal bovine serum (FBS; Gibco, Life Technologies, Carlsbad, CA, USA) and 1% antibiotic mixture (Gibco, Life Technologies, Carlsbad, CA, USA). Cells were cultured at standard conditions (5% CO2, 95% humidity, 37 °C). For cytotoxicity experiments, cells were seeded into 96 well plates at an initial density of 2000 cells/well. After overnight incubation, cells were treated with 3e, 3f, and 3g in a concentration range of 0.78–50 µM for 48 h; then, an MTT assay was performed as described previously. Briefly, following cell exposure, 10 µL of MTT reagent was added to each well. After the next 4 h, the medium was aspirated, and formazan produced in cells appeared as dark crystals in the bottom of the wells. Next, 100 µL DMSO was added to each well. Then, the optical density of the solution (OD) at 570 nm was determined on a plate reader (Spectra Max iD3, Molecular Devices, San Jose, CA, USA). The experiments were run three times in triplicates.

[5] = Cytotoxicity, MTT test, HepG2; assay type: cell-based; conditions: human, HepG2 cells (human hepatocellular carcinoma)
Method: as §3

[6] = Cytotoxicity, MTT test, SH-SY5Y; assay type: cell-based; conditions: human, SH-SY5Y cells (human neuroblastoma)
Method: as §3

[7] = system: 5-HT6R-operated Cdk5 signaling; conditions: Figure 1; cited from earlier work
5-HT6R [8] = target: T1, 5-HT6R; design: expressed in transfected cells; host or cells: NG108-15 (mouse neuroblastoma x rat glioma hybrid), transient co-transfection with CAMYEL, Lipofectamine 2000; conditions: Figure 1; cited from earlier work

| SMILES | Ki (5-HT6R [1]) | other results |
| --- | --- | --- |
| O=S(=O)(c1ccc(N2CCNCC2)cc1)N1Cc2ccccc2C1 [3a, 2-{[4-(Piperazin-1-yl)phenyl]sulfonyl}isoindoline] | 6 ± 1 nM | – |
| O=S(=O)(c1ccc(N2CCNCC2)cc1)N1Cc2cccc(Cl)c2C1 [3b, 4-Chloro-2-{[4-(piperazin-1-yl)phenyl]sulfonyl}isoindoline] | 7 ± 1 nM | – |
| O=S(=O)(c1ccc(N2CCNCC2)cc1)N1Cc2cccc(Br)c2C1 [3c, 4-Bromo-2-{[4-(piperazin-1-yl)phenyl]sulfonyl}isoindoline] | 10 ± 2 nM | – |
| O=S(=O)(c1ccc(N2CCNCC2)cc1)N1Cc2ccc(Br)cc2C1 [3d, 5-Bromo-2-{[4-(piperazin-1-yl)phenyl]sulfonyl}isoindoline] | 87 ± 12 nM | – |
| O=S(=O)(c1cccc(N2CCNCC2)c1)N1Cc2ccc(Br)cc2C1 [3h, 5-Bromo-2-{[3-(piperazin-1-yl)phenyl]sulfonyl}isoindoline] | < 5 nM and 4 nM | – |
| O=S(=O)(c1ccccc1N1CCNCC1)N1Cc2ccccc2C1 [3i, 2-{[2-(Piperazin-1-yl)phenyl]sulfonyl}isoindoline] | > 900 nM and 977 nM | – |
| O=S(=O)(c1ccccc1N1CCNCC1)N1Cc2cccc(Cl)c2C1 [3j, 4-Chloro-2-{[2-(piperazin-1-yl)phenyl]sulfonyl}isoindoline] | > 900 nM and 918 nM | – |
| O=S(=O)(c1ccccc1N1CCNCC1)N1Cc2cccc(Br)c2C1 [3k, 4-Bromo-2-{[2-(piperazin-1-yl)phenyl]sulfonyl}isoindoline] | 32 ± 5 nM | – |
| O=S(=O)(c1ccccc1N1CCNCC1)N1Cc2ccc(Br)cc2C1 [3l, 5-Bromo-2-{[2-(piperazin-1-yl)phenyl]sulfonyl}isoindoline] | > 900 nM and 1170 nM | – |
| O=S(=O)(c1cccc(Cl)c1)n1ccc2c(N[C@H]3CCNC3)nc3ccccc3c21 [CPPQ, (S)-1-[(3-chlorophenyl)sulfonyl]-4-(pyrrolidine-3-yl-amino)-1H-pyrrolo[3,2-c]quinoline] | – | effect on ROT-induced cytotoxicity (C8-D1A astrocytes [2]): decreased the cytotoxicity; effect on 6-OHDA-induced cytotoxicity (C8-D1A astrocytes [3]): decreased the cytotoxicity |
| COc1cccc2c1C(=O)c1c(O)c3c(c(O)c1C2=O)C[C@@](O)(C(=O)CO)C[C@@H]3O[C@H]1C[C@H](N)[C@H](O)[C@H](C)O1 [Doxorubicin, reference compound] | – | IC50 at 48 h [4]: 12300 nM; IC50 at 48 h [5]: 10800 nM; IC50 at 48 h [6]: 4400 nM |
| O=C(N[C@@H]1CCNC1)c1ccn(S(=O)(=O)c2cccc(Cl)c2)c1-c1ccc(F)cc1 [I] | – | Functional profile at Cdk5 [7]: Inverse agonist; Functional profile at Gs (5-HT6R [8]): Inverse agonist |
| NCCc1cn(S(=O)(=O)c2c(Cl)nc3sccn23)c2ccccc12 [WAY-181187] | – | effect on ROT-induced cytotoxicity (C8-D1A astrocytes [2]): slightly but not significantly enhanced the gliotoxic effects; effect on 6-OHDA-induced cytotoxicity (C8-D1A astrocytes [3]): slightly but not significantly enhanced the gliotoxic effects |
